Laboratory results published in US20190100534A1, “Cephem Compounds with Latent Reactive Groups” (Gladius Pharmaceuticals, Inc., priority 2017, published 2019).

Tests used:
Assay in all cases: MIC determination, isogenic E. coli strains
Format in all cases: cell-based
[1] = test system: Isogenic E. coli J58 strain carrying CTX-M-15; conditions: Escherichia coli, 18 h, read-out: Mimimum Inhibitory Concentrations, CTX-M-15
Summary of the method: (§1)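 Isogenic E. coli J53 carrying plasmid-encoded CTX-M-14 or CTX-M-15 (ampicillin-selected), standardized to 0.08-0.1 OD600, incubated overnight (18 h, 37° C.) in CAMH broth plus 20 μM apo-transferrin over 2-fold compound dilutions starting at 64 μg/mL. Lowest concentration with no visible growth recorded as MIC.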

[2] = test system: Isogenic E. coli J58 strain carrying CTX-M-14; conditions: Escherichia coli, 18 h, read-out: Mimimum Inhibitory Concentrations, CTX-M-14
Summary of the method: as §1

[3] = test system: Isogenic E. coli J58 strain carrying TEM-26; conditions: Escherichia coli, 18 h, read-out: Mimimum Inhibitory Concentrations, TEM-26
Summary of the method: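 E. coli J53 carried a pBC-SK(+) plasmid expressing TEM-26 β-lactamase. Compounds were serially halved from […] in CAMH broth containing 20 μM apo-transferrin, inoculated from a 0.5 McFarland culture and held overnight (18 h, 37° C); MIC read as the lowest concentration without visible growth.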

[4] = test system: Isogenic E. coli J58 strain carrying DHA-1; conditions: Escherichia coli, 18 h, read-out: Mimimum Inhibitory Concentrations, DHA-1
Summary of the method: (§2)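 MIC read as the lowest compound level giving a transparent well after 18 h at 37° C. Strains: parent E. coli J53 and isogenic transformants expressing plasmid-borne (pBC-SK(+)) beta-lactamases such as DHA-1; inoculum 0.5 McFarland; CAMH broth plus 20 μM apo-transferrin; compound 64 μg/mL downward, 2-fold dilutions.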

E. coli J53 Alone = conditions: for MIC: Escherichia coli, J53ALONE, 18 h, read-out: Mimimum Inhibitory Concentrations, J53 Alone; for Mimimum Inhibitory Concentrations, J53 Alone: Table 4-2, CAMH broth, 20 μM Apo-Transferrin, 37° C., 18 hours
Summary of the method: as §2

[5] = test system: Isogenic E. coli J58 strain carrying IMP-1; conditions: Escherichia coli, 18 h, read-out: Mimimum Inhibitory Concentrations, IMP-1
Summary of the method: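 Broth microdilution in cation-adjusted Mueller-Hinton broth with 20 μM apo-transferrin, compound serially diluted two-fold from 64 μg/mL, against E. coli J53 carrying plasmid-borne IMP-1. Inoculum adjusted to 0.5 McFarland; plates incubated 18 h at 37° C. MIC taken as lowest concentration giving a clear well.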

| SMILES | MIC [1] | MIC [2] | MIC [3] | MIC [4] | MIC (E. coli J53 Alone) | Mimimum Inhibitory Concentrations, J53 Alone (E. coli J53 Alone) | MIC [5] |
| --- | --- | --- | --- | --- | --- | --- | --- |
| Cc1c[n+](Cc2ccc(C=CC3=C(C(=O)O)N4C(=O)[C@@H](NC(=O)/C(=N\OC(C)(C)C(=O)O)c5csc(N)n5)[C@H]4SC3)cc2)ccc1-c1ccc(O)c(O)c1 (mixture of isomers) [Compound 422, 1-(4-((E/Z)-2-((6R,7R)-7-((Z)-2-(2-aminothiazol-4-yl)-2-(((2-carboxypropan-2-yl)oxy)imino)acetamido)-2-carboxy-8-oxo-5-thia-1-azabicyclo[4.2.0]oct-2-en-3-yl)vinyl)benzyl)-4-(3,4-dihydroxyphenyl)-3-methylpyridin-1-ium] | 4 µg/mL | 4 µg/mL | 4 µg/mL | 0.25 µg/mL | 0.25 µg/mL | 0.25 microgram/mL | > 64 µg/mL |
| CC(C)(O/N=C(\C(=O)N[C@@H]1C(=O)N2C(C(=O)O)=C(C=Cc3ccc(C[n+]4ccc(NC(=O)c5ccc(O)c(O)c5)cc4)cc3)CS[C@H]12)c1csc(N)n1)C(=O)O (mixture of isomers) [Compound 427, 1-(4-((E/Z)-2-((6R,7R)-7-((Z)-2-(2-aminothiazol-4-yl)-2-(((2-carboxypropan-2-yl)oxy)imino)acetamido)-2-carboxy-8-oxo-5-thia-1-azabicyclo[4.2.0]oct-2-en-3-yl)vinyl)benzyl)-4-(3,4-dihydroxybenzamido)pyridin-1-ium] | 1 µg/mL | 1 µg/mL | 2 µg/mL | 1 µg/mL | ≤ 0.06 µg/mL | ≤0.06 microgram/mL | 16 µg/mL |
| CC(C)(O/N=C(\C(=O)N[C@@H]1C(=O)N2C(C(=O)O)=C(C=Cc3ccc(C[N+](C)(C)Cc4ccc(O)c(O)c4Cl)cc3)CS[C@H]12)c1csc(N)n1)C(=O)O (mixture of isomers) [Compound 434, N-(4-((E/Z)-2-((6R,7R)-7-((Z)-2-(2-aminothiazol-4-yl)-2-(((2-carboxypropan-2-yl)oxy)imino)acetamido)-2-carboxy-8-oxo-5-thia-1-azabicyclo[4.2.0]oct-2-en-3-yl)vinyl)benzyl)-1-(2-chloro-3,4-dihydroxyphenyl)-N,N-dimethylmethanaminium] | 0.5 µg/mL | 2 µg/mL | 2 µg/mL | 1 µg/mL | 0.25 µg/mL | 0.25 microgram/mL | 0.25 µg/mL |
| Cn1c[n+](Cc2ccc(C=CC3=C(C(=O)O)N4C(=O)[C@@H](NC(=O)/C(=N\OC(C)(C)C(=O)O)c5csc(N)n5)[C@H]4SC3)cc2)cc1C(=O)Nc1ccc(O)c(O)c1 (mixture of isomers) [Compound 411, 3-(4-((E/Z)-2-((6R,7R)-7-((Z)-2-(2-aminothiazol-4-yl)-2-(((2-carboxypropan-2-yl)oxy)imino)acetamido)-2-carboxy-8-oxo-5-thia-1-azabicyclo[4.2.0]oct-2-en-3-yl)vinyl)benzyl)-5-((3,4-dihydroxyphenyl)carbamoyl)-1-methyl-1H-imidazol-3-ium] | 0.5 µg/mL | 4 µg/mL | 8 µg/mL | 1 µg/mL | 0.5 µg/mL | 0.5 microgram/mL | 64 µg/mL |
| CC(C)(O/N=C(\C(=O)N[C@@H]1C(=O)N2C(C(=O)O)=C(C=Cc3ccc(C[n+]4cccc(-c5ccc(O)c(O)c5)c4)cc3)CS[C@H]12)c1csc(N)n1)C(=O)O (mixture of isomers) [Compound 413, 1-(4-((E/Z)-2-((6R,7R)-7-((Z)-2-(2-aminothiazol-4-yl)-2-(((2-carboxypropan-2-yl)oxy)imino)acetamido)-2-carboxy-8-oxo-5-thia-1-azabicyclo[4.2.0]oct-2-en-3 yl)vinyl)benzyl)-3-(3,4-dihydroxyphenyl)pyridin-1-ium] | 2 µg/mL | 2 µg/mL | 1 µg/mL | 0.13 µg/mL | 0.25 µg/mL | 0.25 microgram/mL | 64 µg/mL |
| CC(C)(O/N=C(\C(=O)N[C@@H]1C(=O)N2C(C(=O)O)=C(C=Cc3ccc(C[N+](C)(C)Cc4ccc(O)c(O)c4)cc3)CS[C@H]12)c1csc(N)n1)C(=O)O (mixture of isomers) [Compound 426, N-(4-((E/Z)-2-((6R,7R)-7-((Z)-2-(2-aminothiazol-4-yl)-2-(((2-carboxypropan-2-yl)oxy)imino)acetamido)-2-carboxy-8-oxo-5-thia-1-azabicyclo[4.2.0]oct-2-en-3-yl)vinyl)benzyl)-1-(3,4-dihydroxyphenyl)-N,N-dimethylmethanaminium] | 0.5 µg/mL | 0.5 µg/mL | 8 µg/mL | 0.5 µg/mL | 1 µg/mL | 1 microgram/mL | 32 µg/mL |
| CC(C)(O/N=C(\C(=O)N[C@@H]1C(=O)N2C(C(=O)O)=C(C=Cc3ccc(C[N+]4(C)Cc5cc(O)c(O)cc5C4)cc3)CS[C@H]12)c1csc(N)n1)C(=O)O (mixture of isomers) [Compound 424, 2-(4-((E/Z)-2-((6R,7R)-7-((Z)-2-(2-aminothiazol-4-yl)-2-(((2-carboxypropan-2-yl)oxy)imino)acetamido)-2-carboxy-8-oxo-5-thia-1-azabicyclo[4.2.0]oct-2-en-3-yl)vinyl)benzyl)-5,6-dihydroxy-2-methylisoindolin-2-ium] | 2 µg/mL | 1 µg/mL | 4 µg/mL | 0.5 µg/mL | 0.25 µg/mL | 0.25 microgram/mL | > 64 µg/mL |
| CC(C)(O/N=C(\C(=O)N[C@@H]1C(=O)N2C(C(=O)O)=C(C=Cc3ccc(C[N+](C)(C)Cc4cc(O)c(O)c(Cl)c4)cc3)CS[C@H]12)c1csc(N)n1)C(=O)O (mixture of isomers) [Compound 436, N-(4-((E/Z)-2-((6R,7R)-7-((Z)-2-(2-aminothiazol-4-yl)-2-(((2-carboxypropan-2-yl)oxy)imino)acetamido)-2-carboxy-8-oxo-5-thia-1-azabicyclo[4.2.0]oct-2-en-3-yl)vinyl)benzyl)-1-(3-chloro-4,5-dihydroxyphenyl)-N,N-dimethylmethanaminium] | 0.5 µg/mL | 1 µg/mL | 2 µg/mL | 0.25 µg/mL | 0.13 µg/mL | 0.13 microgram/mL | 8 µg/mL |
